Source: article PMC11555526, “Development of 2-Aminoadenine-Based Proteolysis-Targeting Chimeras (PROTACs) as Novel Potent Degraders of Monopolar Spindle 1 and Aurora Kinases” (ACS Pharmacology & Translational Science, 2024)
“And” between values parts separate entries of the source, which are not always exact repeats. Equal entries are not always repeated.

Tests used:
[1] = biological target: T1, AURKB (MV4-11^AURKB-HiBiT cells) (Homo sapiens, UniProt Q96GD4); assay: HiBiT assay, AURKB degradation; assay type: cell-based; set-up: key to Dmax (maximal degradation) AURKB: compounds with degradation less than 15% reported as “inactive”; settings: 6 h treatment; for DC50: read-out: DC50 (half-maximal degradation concentration) AURKB
T1 construct: expressed in transfected cells; host or cells: MV4-11, lentiviral transduction (pRRL-PGK vector)
Procedure: (§1) The effects of the synthesized compounds on AURKA, AURKB, and TTK mitotic kinases were then assessed in cellular systems. For this, HiBiT cell lines were generated for all three mitotic kinases. A small 11 amino acid peptide fragment of luciferase (HiBiT) was fused to the coding sequence of the proteins and stably transduced in the MV4-11 cell line (MV4-11^AURKA-HiBiT, MV4-11^AURKB-HiBiT, and MV4-11^HiBiT-TTK).
(§2) The stable cell lines MV4-11^AURKA-HiBiT, MV4-11^AURKB-HiBiT, and MV4-11^HiBiT-TTK cells were generated by lentiviral infection. Lentivirus was produced using the respective HiBiT vector, plasmids psPAX2, and pMD2.G in HEK293 cells. The virus supernatant was filtered and MV4-11 cells were doubly infected with the supernatant. The cells were selected after 48 h of infection until the control cells were dead to get the stable cell line.
(§3) The cells stably expressing HiBiT-tagged protein were seeded into 96-well plates and treated with serial dilutions of compounds for the indicated time points. At the end point, the assay was performed using the Nano-Glo HiBiT Lytic Detection System (Promega) according to the manufacturer’s instruction. Luminescence was measured on a GloMax 96 Microplate Luminometer (Promega) or a Tecan Spark Multiplate reader (Tecan). DC50 was calculated using concentrations showing sigmoidal behavior with the dose–response (four parameters) equation in Prism (GraphPad).

[2] = biological target: T2, AURKB (Homo sapiens, UniProt Q96GD4); assay: Immunoblot of AURKB in naive MV4-11 cells; assay type: cell-based; settings: 6 h, 0.1 µM
T2 construct: endogenous in cells; host or cells: naive MV4-11
Procedure: The cells were treated with compounds or vehicle for indicated time points and lysed in RIPA lysis buffer (50 mM HEPES pH 7.9, 140 mM NaCl, 1 mM EDTA, 1% Triton X-100, 0.1% SDS, 0.1% sodium deoxycholate) containing protease and phosphatase inhibitors (Sigma) for 20 min at 4 °C. Cell lysates were cleared by centrifugation, and protein concentration was determined with bicinchoninic acid assay. Equal amounts of protein per sample were separated by Bis-Tris-PAGE and transferred to PVDF membranes (Millipore). The membranes were blocked with 5% (w/v) nonfat dry milk in TBS-T [20 mM Tris–HCl, pH 7.5, 150 mM NaCl, 0.1% (v/v) Tween-20] for 1 h at room temperature and incubated with primary antibody at 4 °C overnight. Visualization was carried out using horseradish peroxidase (HRP)-labeled secondary antibodies and detected using a chemiluminescent HRP substrate (Millipore) in LAS3000 or LAS4000 mini (Fujifilm). Vinculin, GAPDH, or B-actin were used as a loading control. The loading control was probed along with the target antibody by cutting the membrane. For targets with similar molecular weights, the samples were run in duplicate and probed with their respective loading controls, although only one control was shown in the figure for all targets. The signal was quantified using ImageJ or Image Studio Lite against the corresponding loading controls. Antibodies used in this study were as follows: Aurora A/AIK (Cell Signaling Technology, 3092), Aurora B (Bethyl Laboratories, A300–431A), TTK (Santa Cruz Biotechnology, sc-56968), GAPDH (Cell Signaling Technology, 2118), B-Actin (Sigma, A5441), and Vinculin (Sigma, V9131).
α GAPDH α Vinculin α B-Actin
Figure S2: Cellular degradation studies of SF1-based compounds. […]
Immunoblots of TTK and AURKB. Naive MV4-11 cells were treated with indicated concentration of 44 or 47 G)
(E), 18 (F), and 14 or 20 (G) for 6 h and compared with vehicle treated cells. […]
All HiBiT data are represented as a mean ±s.d. from n=2 replicates. […]

[3] = test system: MV4-11 cells (naive); assay: alamarBlue cell viability assay; assay type: cell-based, human; settings: 72 h treatment, MV4-11 cells (naive); for EC50: read-out: EC50 (concentration that decreases cell viability by 50%)
Procedure: Finally, to study the effect of the compounds on cancer cell survival, MV4-11 cells were treated with various concentrations of the chimeras and the cell viability was assessed after 72 h. […] As opposed to the parent inhibitor MPS1-IN-3, its derivatives except 40 were not cytotoxic (Figure S7B, Table 5). […] In addition, most of the SF1-based derivatives affected the viability of MV4-11 cells in nanomolar concentrations (Table 5).
For the alamarBlue cell viability assay, cells were seeded in 96-well plates and treated with indicated concentrations of the compounds or vehicle. A few hours before the experimental end point (72 h, unless otherwise stated), the cells were incubated with the alamarBlue reagent. Finally, fluorescence (excitation: 550 nm and emission: 600 nm) or absorbance (570 nm with reference at 600 nm) was measured on a Tecan Spark Multiplate reader (Tecan).

[4] = biological target: T3, TTK (MV4-11^HiBiT-TTK cells) (Homo sapiens, UniProt P33981); assay: HiBiT assay, TTK degradation; assay type: cell-based; set-up: key to Dmax (maximal degradation) TTK: compounds with degradation less than 15% reported as “inactive”; settings: 6 h treatment, MV4-11^HiBiT-TTK cells; for DC50: read-out: DC50 (half-maximal degradation concentration) TTK
T3 construct: expressed in transfected cells; host or cells: MV4-11, lentiviral transduction (pRRL-PGK-HiBiT entry vector)
T3 sequence (P33981 1-857): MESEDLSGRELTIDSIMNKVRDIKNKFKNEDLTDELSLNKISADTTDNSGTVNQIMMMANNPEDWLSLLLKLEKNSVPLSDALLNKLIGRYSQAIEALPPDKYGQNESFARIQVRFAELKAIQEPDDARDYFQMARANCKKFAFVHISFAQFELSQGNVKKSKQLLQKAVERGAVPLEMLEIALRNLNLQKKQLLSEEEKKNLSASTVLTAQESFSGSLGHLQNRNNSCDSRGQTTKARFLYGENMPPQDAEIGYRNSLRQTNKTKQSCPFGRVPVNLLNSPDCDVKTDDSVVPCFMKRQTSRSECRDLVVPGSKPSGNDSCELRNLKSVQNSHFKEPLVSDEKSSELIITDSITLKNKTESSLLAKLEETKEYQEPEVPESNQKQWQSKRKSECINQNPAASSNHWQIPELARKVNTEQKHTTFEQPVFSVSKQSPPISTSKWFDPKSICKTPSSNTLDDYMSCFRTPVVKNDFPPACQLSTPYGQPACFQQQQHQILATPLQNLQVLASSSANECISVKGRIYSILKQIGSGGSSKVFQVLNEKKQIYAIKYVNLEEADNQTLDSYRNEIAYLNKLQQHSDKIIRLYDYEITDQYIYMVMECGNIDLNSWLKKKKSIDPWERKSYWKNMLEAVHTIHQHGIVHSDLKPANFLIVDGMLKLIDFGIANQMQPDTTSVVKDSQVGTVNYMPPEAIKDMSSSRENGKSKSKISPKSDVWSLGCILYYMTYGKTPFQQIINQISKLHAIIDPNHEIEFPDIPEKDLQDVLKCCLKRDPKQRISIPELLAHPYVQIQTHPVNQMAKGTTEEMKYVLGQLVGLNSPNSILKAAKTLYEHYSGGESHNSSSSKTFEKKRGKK
Procedure: as §1, §2, §3

[5] = biological target: T4, AURKA (MV4-11^AURKA-HiBiT cells) (Homo sapiens, UniProt O14965); assay: HiBiT assay, AURKA degradation; assay type: cell-based; set-up: key to Dmax (maximal degradation) AURKA: compounds with degradation less than 15% reported as “inactive”; settings: 6 h treatment, MV4-11^AURKA-HiBiT cells; for DC50: read-out: DC50 (half-maximal degradation concentration) AURKA
T4 construct: expressed in transfected cells; host or cells: MV4-11, lentiviral transduction
T4 sequence (O14965 1-403): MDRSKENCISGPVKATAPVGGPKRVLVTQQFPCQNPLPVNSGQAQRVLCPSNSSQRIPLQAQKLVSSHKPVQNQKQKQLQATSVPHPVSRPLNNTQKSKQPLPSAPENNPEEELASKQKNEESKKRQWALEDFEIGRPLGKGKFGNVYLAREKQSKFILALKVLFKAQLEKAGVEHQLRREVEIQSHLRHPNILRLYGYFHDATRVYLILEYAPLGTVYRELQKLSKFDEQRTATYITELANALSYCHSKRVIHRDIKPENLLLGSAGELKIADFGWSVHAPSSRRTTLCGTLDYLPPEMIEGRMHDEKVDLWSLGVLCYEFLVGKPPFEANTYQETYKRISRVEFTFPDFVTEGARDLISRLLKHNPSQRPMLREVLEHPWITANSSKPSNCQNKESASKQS
Procedure: as §1, §2, §3

T1 sequence (Q96GD4 1-345 isoform Q96GD4-5): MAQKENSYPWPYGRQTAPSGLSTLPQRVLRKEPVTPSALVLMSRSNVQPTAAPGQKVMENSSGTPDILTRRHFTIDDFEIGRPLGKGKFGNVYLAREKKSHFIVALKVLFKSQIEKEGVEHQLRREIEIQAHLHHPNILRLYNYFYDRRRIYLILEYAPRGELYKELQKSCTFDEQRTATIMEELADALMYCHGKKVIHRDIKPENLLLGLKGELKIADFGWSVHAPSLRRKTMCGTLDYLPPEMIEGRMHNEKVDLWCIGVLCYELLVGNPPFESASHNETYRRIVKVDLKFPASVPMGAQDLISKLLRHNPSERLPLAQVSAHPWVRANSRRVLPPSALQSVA
T2 sequence (Q96GD4 whole entry): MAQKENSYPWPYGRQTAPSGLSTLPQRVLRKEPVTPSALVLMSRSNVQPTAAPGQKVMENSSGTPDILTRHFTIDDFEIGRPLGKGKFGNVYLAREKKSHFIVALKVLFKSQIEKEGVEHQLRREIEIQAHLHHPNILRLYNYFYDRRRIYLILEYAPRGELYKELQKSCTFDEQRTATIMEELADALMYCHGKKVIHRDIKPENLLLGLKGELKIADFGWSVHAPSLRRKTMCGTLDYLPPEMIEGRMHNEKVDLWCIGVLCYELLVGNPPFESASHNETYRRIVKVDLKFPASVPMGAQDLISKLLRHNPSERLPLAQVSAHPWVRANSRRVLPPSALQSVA

| Compound | Dmax (maximal degradation) AURKB [1] | relative AURKB level (immunoblot quantification, vehicle = 1.00) [2] | Dmax (maximal degradation) TTK [4] | Dmax (maximal degradation) AURKA [5] | DC50 [1] [µM] | EC50 [3] [µM] | DC50 [4] [µM] | DC50 [5] [µM] | DC50 (half-maximal degradation concentration) AURKB [1] | EC50 (concentration that decreases cell viability by 50%) [3] | DC50 (half-maximal degradation concentration) TTK [4] | DC50 (half-maximal degradation concentration) AURKA [5] |
| --- | --- | --- | --- | --- | --- | --- | --- | --- | --- | --- | --- | --- |
| COc1cc(N2CCC(OCC(=O)NCCOCCOCCNc3cccc4c3C(=O)N(C3CCC(=O)NC3=O)C4=O)CC2)ccc1Nc1nc(Nc2ccccc2S(=O)(=O)C(C)C)c2nc[nH]c2n1 (stereo not shown) [Compound 38] | inactive |  | 16.10% | inactive |  |  |  |  | – (compounds with degradation less than 25% were not calculated and reported as “–”) | — (compounds with decrease of cell viability less than 50% were not calculated and reported as “—”) | – (compounds with degradation less than 25% were not calculated and reported as “–”) | – (compounds with degradation less than 25% were not calculated and reported as “–”) |
| COc1cc(N2CCC(OCC(=O)NCCNC(=O)CCCC(=O)Nc3cccc4c3C(=O)N(C3CCC(=O)NC3=O)C4=O)CC2)ccc1Nc1nc(Nc2ccccc2S(=O)(=O)C(C)C)c2nc[nH]c2n1 (stereo not shown) [Compound 41] | inactive |  | inactive | inactive |  |  |  |  | – (compounds with degradation less than 25% were not calculated and reported as “–”) | — (compounds with decrease of cell viability less than 50% were not calculated and reported as “—”) | – (compounds with degradation less than 25% were not calculated and reported as “–”) | – (compounds with degradation less than 25% were not calculated and reported as “–”) |

Further lines, with some results ahead:

| Dmax (maximal degradation) AURKB [1] | relative AURKB level (immunoblot quantification, vehicle = 1.00) [2] | Dmax (maximal degradation) TTK [4] | Dmax (maximal degradation) AURKA [5] | DC50 [1] [µM] | EC50 [3] [µM] | DC50 [4] [µM] | DC50 [5] [µM] | Compound | DC50 (half-maximal degradation concentration) AURKB [1] | EC50 (concentration that decreases cell viability by 50%) [3] | DC50 (half-maximal degradation concentration) TTK [4] | DC50 (half-maximal degradation concentration) AURKA [5] |
| --- | --- | --- | --- | --- | --- | --- | --- | --- | --- | --- | --- | --- |
| 20.20% | 1.00 | inactive | 21.70% |  |  |  |  | Cc1ncsc1-c1ccc(CNC(=O)[C@@H]2C[C@@H](O)CN2C(=O)[C@@H](NC(=O)CCC(=O)NCC(=O)N2CCN(c3ccc(Nc4nc(Nc5ccccc5S(=O)(=O)C(C)C)c5nc[nH]c5n4)cc3)CC2)C(C)(C)C)cc1 [Compound 47] | – (compounds with degradation less than 25% were not calculated and reported as “–”) | — (compounds with decrease of cell viability less than 50% were not calculated and reported as “—”) | – (compounds with degradation less than 25% were not calculated and reported as “–”) | – (compounds with degradation less than 25% were not calculated and reported as “–”) |
| 33.80% |  | 32.70% | 55% and 55.60% | 2.28 | 0.584 | 1.96 | 0.684 | Cc1ncsc1-c1ccc(CNC(=O)[C@@H]2C[C@@H](O)CN2C(=O)[C@@H](NC(=O)CCCC(=O)N2CCN(c3ccc(Nc4nc(NC5CCCCC5)c5nc[nH]c5n4)cc3)CC2)C(C)(C)C)cc1 [Compound 43] |  |  |  |  |
| inactive |  | 28.40% | 28.30% |  | 6.91 | 5.65 | 9.84 | Cc1ncsc1-c1ccc(CNC(=O)[C@@H]2C[C@@H](O)CN2C(=O)[C@@H](NC(=O)CCC(=O)NCCNC(=O)CCC(=O)N2CCN(c3ccc(Nc4nc(NC5CCCCC5)c5nc[nH]c5n4)cc3)CC2)C(C)(C)C)cc1 [Compound 55] | – (compounds with degradation less than 25% were not calculated and reported as “–”) |  |  |  |
| 44.00% |  | 73.95% | inactive | 1.16 | 0.421 | 0.993 |  | Cc1ncsc1-c1ccc(CNC(=O)[C@@H]2C[C@H](O)CN2C(=O)[C@@H](NC(=O)COCCOCC(=O)N2CCN(c3ccc(Nc4nc(Nc5ccccc5S(=O)(=O)C(C)C)c5nc[nH]c5n4)cc3)CC2)C(C)(C)C)cc1 [Compound 51] |  |  |  | – (compounds with degradation less than 25% were not calculated and reported as “–”) |
